This passage reports IC50 results from US11447466B2, “Substituted indole compounds useful as inhibitors of TLR7/8/9” (BRISTOL-MYERS SQUIBB COMPANY, priority 2017, dated 2022).

Assay type in all cases: cell-based
In one assay the target is T1, human TLR8 (Homo sapiens, UniProt Q9NR97).
T1 construct: host or cells: HEK-Blue cells
T1 sequence (Q9NR97 27-1041): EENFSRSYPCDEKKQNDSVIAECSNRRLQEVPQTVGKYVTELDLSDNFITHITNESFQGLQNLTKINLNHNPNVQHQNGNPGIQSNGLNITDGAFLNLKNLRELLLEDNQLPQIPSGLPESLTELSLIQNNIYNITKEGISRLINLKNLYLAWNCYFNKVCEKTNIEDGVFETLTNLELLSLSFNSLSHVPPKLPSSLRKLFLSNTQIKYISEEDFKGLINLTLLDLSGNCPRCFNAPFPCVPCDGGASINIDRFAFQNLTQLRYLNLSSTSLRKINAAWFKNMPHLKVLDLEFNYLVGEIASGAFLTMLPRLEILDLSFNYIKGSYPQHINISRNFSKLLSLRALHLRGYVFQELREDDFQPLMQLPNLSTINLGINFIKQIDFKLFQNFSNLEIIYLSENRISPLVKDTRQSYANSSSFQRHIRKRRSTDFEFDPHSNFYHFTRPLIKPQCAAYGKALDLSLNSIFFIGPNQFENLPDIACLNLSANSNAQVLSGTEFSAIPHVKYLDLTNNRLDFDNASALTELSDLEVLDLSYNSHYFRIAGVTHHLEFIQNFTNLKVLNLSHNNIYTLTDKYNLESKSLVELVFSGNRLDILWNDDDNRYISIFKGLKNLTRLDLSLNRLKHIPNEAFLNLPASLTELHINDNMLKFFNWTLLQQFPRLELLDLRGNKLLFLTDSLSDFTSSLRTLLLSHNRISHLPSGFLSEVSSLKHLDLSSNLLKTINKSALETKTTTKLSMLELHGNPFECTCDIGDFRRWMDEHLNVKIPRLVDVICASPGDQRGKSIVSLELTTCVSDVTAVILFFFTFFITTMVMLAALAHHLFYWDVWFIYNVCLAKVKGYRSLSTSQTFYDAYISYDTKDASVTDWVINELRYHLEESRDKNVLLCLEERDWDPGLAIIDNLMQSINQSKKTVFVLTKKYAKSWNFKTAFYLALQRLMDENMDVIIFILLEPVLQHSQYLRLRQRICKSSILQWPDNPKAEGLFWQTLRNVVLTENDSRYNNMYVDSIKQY
Nature of the assay: TLR8 inhibition reporter assay (HEK-Blue SEAP reporter, R848 stimulation). Particulars: HEK-Blue cells overexpressing human TLR8, SEAP reporter, R848 15.9 μM, 22 hour incubation. The method in brief:
(§1)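 Screening used HEK-Blue cells overexpressing one human TLR (7, 8 or 9) and an IFN-β minimal promoter–NF-κB/AP-1 SEAP construct. Stimulation lasted 22 h at 37 °C with receptor-specific agonist: gardiquimod, R848 or ODN2006 at 7.5 μM, 15.9 μM and 5 nM.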
On the technique in general: Reporter assays use an easily measured gene product as a stand-in for the process of interest.

A further assay deals with T2, human TLR7 (Homo sapiens, UniProt Q9NYK1).
T2 construct: host or cells: HEK-Blue cells
T2 sequence (Q9NYK1 27-1049): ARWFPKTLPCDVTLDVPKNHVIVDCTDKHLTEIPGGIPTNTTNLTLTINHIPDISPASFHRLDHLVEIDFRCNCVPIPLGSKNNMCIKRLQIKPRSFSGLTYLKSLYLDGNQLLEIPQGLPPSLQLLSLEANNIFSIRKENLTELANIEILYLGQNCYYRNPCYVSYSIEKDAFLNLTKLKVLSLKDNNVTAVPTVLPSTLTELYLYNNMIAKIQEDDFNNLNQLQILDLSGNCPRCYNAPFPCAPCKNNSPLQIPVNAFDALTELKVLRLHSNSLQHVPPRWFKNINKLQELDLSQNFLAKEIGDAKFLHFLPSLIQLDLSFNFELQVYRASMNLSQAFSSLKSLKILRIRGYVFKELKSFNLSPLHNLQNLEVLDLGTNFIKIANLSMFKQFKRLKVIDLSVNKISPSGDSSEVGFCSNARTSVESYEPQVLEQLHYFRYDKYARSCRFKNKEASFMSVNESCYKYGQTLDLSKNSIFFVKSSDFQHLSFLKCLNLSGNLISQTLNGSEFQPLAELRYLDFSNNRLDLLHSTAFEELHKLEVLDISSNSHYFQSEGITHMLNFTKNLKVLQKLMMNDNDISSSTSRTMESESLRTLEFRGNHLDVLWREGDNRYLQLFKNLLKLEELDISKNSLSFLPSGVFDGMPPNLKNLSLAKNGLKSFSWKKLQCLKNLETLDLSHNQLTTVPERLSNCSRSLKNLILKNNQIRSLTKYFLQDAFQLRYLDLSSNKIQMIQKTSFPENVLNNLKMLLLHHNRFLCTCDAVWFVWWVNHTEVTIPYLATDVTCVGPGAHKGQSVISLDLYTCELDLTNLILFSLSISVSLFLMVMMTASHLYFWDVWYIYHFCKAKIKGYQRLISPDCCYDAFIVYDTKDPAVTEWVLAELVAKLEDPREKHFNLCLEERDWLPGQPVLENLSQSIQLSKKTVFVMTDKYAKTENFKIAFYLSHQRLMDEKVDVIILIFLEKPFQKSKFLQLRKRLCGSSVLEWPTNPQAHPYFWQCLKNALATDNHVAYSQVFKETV
Briefly: TLR7 inhibition reporter assay (HEK-Blue SEAP reporter, gardiquimod stimulation). Particulars: HEK-Blue cells overexpressing human TLR7, SEAP reporter, gardiquimod 7.5 μM, 22 hour incubation. The method, boiled down: as §1

The next assay addresses T3, human TLR9 (Homo sapiens, UniProt Q9NR96).
T3 construct: host or cells: HEK-Blue cells
T3 sequence (Q9NR96 26-1032): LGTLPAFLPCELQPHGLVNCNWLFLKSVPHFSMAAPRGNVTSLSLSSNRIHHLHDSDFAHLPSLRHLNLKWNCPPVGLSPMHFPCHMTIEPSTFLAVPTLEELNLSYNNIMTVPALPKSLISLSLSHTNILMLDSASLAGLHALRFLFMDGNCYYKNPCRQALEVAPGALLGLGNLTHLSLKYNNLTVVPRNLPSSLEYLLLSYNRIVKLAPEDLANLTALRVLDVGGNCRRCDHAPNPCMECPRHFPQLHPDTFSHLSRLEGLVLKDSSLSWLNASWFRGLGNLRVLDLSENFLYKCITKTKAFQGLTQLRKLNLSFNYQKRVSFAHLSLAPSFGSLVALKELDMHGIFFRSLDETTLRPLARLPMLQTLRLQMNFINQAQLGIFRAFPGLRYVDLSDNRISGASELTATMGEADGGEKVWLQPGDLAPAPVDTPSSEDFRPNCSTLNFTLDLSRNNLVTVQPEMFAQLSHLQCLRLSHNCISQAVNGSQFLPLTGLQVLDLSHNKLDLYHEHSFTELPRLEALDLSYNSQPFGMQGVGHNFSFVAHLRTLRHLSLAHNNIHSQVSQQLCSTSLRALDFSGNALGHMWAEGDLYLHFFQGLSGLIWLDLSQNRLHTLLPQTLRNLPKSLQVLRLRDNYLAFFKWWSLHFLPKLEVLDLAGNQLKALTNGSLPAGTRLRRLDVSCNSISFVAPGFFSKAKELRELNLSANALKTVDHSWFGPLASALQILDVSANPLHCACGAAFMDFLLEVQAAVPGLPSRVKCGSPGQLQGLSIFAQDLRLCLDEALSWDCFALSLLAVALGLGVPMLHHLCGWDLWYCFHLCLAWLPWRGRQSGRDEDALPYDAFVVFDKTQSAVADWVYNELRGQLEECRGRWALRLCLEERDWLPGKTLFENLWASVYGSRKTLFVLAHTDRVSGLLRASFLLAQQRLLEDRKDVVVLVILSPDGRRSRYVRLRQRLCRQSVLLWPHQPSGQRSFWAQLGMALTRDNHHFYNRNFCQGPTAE
Briefly: TLR9 inhibition reporter assay (HEK-Blue SEAP reporter, ODN2006 stimulation). The note with it: HEK-Blue cells overexpressing human TLR9, SEAP reporter, ODN2006 5 nM, 22 hour incubation. The method, boiled down:
as §1

Structures are written as SMILES.

By IC50 is commonly meant the concentration needed to halve the response being measured. Low readings indicate greater potency, high ones weaker potency. As for `CCn1cc(-c2[nH]c3ccc(C4CCN(C5CCOCC5)CC4)cc3c2C(C)C)c(C)c(C)c1=O` [Example 208, 1-ethyl-5-(3-isopropyl-5-(1-(tetrahydro-2H-pyran-4-yl)piperidin-4-yl)-1H-indol-2-yl)-3,4-dimethylpyridin-2(1H)-one], the IC50 stood at 7 nM against human TLR8, 31.1 nM at human TLR7 and 3110 nM on human TLR9.
As for `CCc1cc(-c2[nH]c3ccc(C4CCN(CC(=O)N(C)C)CC4)cc3c2C(C)C)cn(C)c1=O` [Example 168, 2-(4-(2-(5-ethyl-1-methyl-6-oxo-1,6-dihydropyridin-3-yl)-3-isopropyl-1H-indol-5-yl)piperidin-1-yl)-N,N-dimethylacetamide], the IC50 against human TLR8 amounted to 10.3 nM; against human TLR7, 7.9 nM; on human TLR9 it was 2380 nM.
For the compound `CC(C)c1c(-c2cc(C(=O)N3CCCC3)c(=O)n(C)c2)[nH]c2ccc(C3CCNCC3)cc12` [Example 69, 5-(3-isopropyl-5-(piperidin-4-yl)-1H-indol-2-yl)-1-methyl-3-(pyrrolidine-1-carbonyl) pyridin-2(1H)-one], the IC50 at human TLR8 was 180 nM; at human TLR7, 333 nM; against human TLR9, at least 50000 nM.
`COCc1cc(-c2[nH]c3ccc(C4CCN(C(=O)CN(C)C)CC4)cc3c2C(C)C)cn(C)c1=O` [Example 277, 5-(5-(1-(dimethylglycyl)piperidin-4-yl)-3-isopropyl-1H-indol-2-yl)-3-(methoxymethyl)-1-methylpyridin-2(1H)-one]: the IC50 against human TLR8 turned out to be 21 nM; against human TLR7 it was 9.3 nM; against human TLR9, 15600 nM.
For `Cc1cc(-c2[nH]c3ccc(C4CCN(CC(=O)N5CC[C@H](O)C5)CC4)cc3c2C(C)C)cn(C)c1=O` [Example 119, (S)-5-(5-(1-(2-(3-hydroxypyrrolidin-1-yl)-2-oxoethyl)piperidin-4-yl)-3-isopropyl-1H-indol-2-yl)-1,3-dimethylpyridin-2(1H)-one], in that order: 14.9 nM, 11.4 nM and 1160 nM.
On to `Cc1c(-c2[nH]c3ccc(C4CCN(CC(O)CO)CC4)cc3c2C(C)C)cn(C)c(=O)c1Cl` (stereo not drawn) [Example 253, 3-chloro-5-(5-(1-(2,3-dihydroxypropyl)piperidin-4-yl)-3-isopropyl-1H-indol-2-yl)-1,4-dimethylpyridin-2(1H)-one], for which the IC50 was determined as 5.2 nM against human TLR8, 6.1 nM at human TLR7 and 1240 nM against human TLR9.
For `Cc1c(-c2[nH]c3ccc(C4CCNCC4)cc3c2C(C)C)cc(Cl)c(=O)n1C` [Example 33, 3-chloro-5-(3-isopropyl-5-(piperidin-4-yl)-1H-indol-2-yl)-1,6-dimethylpyridin-2(1H)-one], in that order: 12.6 nM, 16.1 nM and 922 nM.
On the same counts, the results for `Cc1c(-c2[nH]c3ccc(C4CCN(CC(=O)N(C)C)CC4)cc3c2C(C)C)cc(C#N)c(=O)n1C` [Example 145, 2-(4-(2-(5-cyano-1,2-dimethyl-6-oxo-1,6-dihydropyridin-3-yl)-3-isopropyl-1H-indol-5-yl)piperidin-1-yl)-N,N-dimethylacetamide] are 10.7 nM, 63.8 nM and 7170 nM.
For `Cc1cc(-c2[nH]c3ccc(C4CCN(CC5CC5)CC4)cc3c2C(C)C)cn(C)c1=O` [Example 223, 5-(5-(1-(cyclopropylmethyl)piperidin-4-yl)-3-isopropyl-1H-indol-2-yl)-1,3-dimethylpyridin-2(1H)-one], the IC50 at human TLR8 was found to be 13.6 nM; at human TLR7 it was 10 nM; on human TLR9, 5910 nM.
For `COCCn1cc(-c2[nH]c3ccc(C4CCN(C(=O)CN(C)C)CC4)cc3c2C(C)C)cc(C)c1=O` [Example 287, 5-(5-(1-(dimethylglycyl)piperidin-4-yl)-3-isopropyl-1H-indol-2-yl)-1-(2-methoxyethyl)-3-methylpyridin-2(1H)-one], in that order: 8.6 nM, 7.8 nM and 18200 nM.
On the same counts, the results for `Cc1cc(-c2[nH]c3ccc(C4CCN(CC5=NN=CC5)CC4)cc3c2C(C)C)cn(C)c1=O` [Example 200, 5-(5-(1-((4H-pyrazol-3-yl)methyl)piperidin-4-yl)-3-isopropyl-1H-indol-2-yl)-1,3-dimethylpyridin-2(1H)-one] are 2.2 nM, 4.3 nM and 3740 nM.
On the same counts, the results for `Cc1c(-c2[nH]c3ccc(C4CCN(C5COC5)CC4)cc3c2C(C)C)nn(C)c(=O)c1C` [Example 203, 6-(3-isopropyl-5-(1-(oxetan-3-yl)piperidin-4-yl)-1H-indol-2-yl)-2,4,5-trimethylpyridazin-3(2H)-one] are 28.7 nM, 272 nM and 16900 nM.
